Laboratory results taken from patent US8759333B2, “Di-azetidinyl diamide as monoacylglycerol lipase inhibitors” (Janssen Pharmaceutica, NV, priority 2010, dated 2014).
pIC50, pKd: −log10 of the molar value.

Legend:
MGL = molecular target: T1, MGL (Rattus norvegicus, UniProt Q8R431); assay: 2-AG Accumulation Assay in rat brain homogenate; type: biochemical; settings: percent of vehicle; for activity at 1 µM: compound @1 µM, read-out: Rat Brain 2AG % VehCntrl (%) @1 µM; for activity at 10 µM: compound @10 µM, read-out: Rat Brain 2AG % VehCntrl (%) @10 µM
T1 construct: one g rat brain was homogenized using a Polytron homogenizer; from tissue; host or cells: rat brain homogenate
T1 sequence (Q8R431 1-303): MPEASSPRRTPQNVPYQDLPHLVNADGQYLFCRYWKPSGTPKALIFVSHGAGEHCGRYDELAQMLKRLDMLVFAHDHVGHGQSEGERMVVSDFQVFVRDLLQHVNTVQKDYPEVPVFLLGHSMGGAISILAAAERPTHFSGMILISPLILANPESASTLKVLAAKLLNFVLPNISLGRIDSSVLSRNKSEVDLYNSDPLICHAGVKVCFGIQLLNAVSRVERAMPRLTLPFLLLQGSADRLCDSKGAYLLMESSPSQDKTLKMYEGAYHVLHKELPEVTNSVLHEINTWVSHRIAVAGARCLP

mutant MGL = molecular target: T2, mutant MGL (Homo sapiens, UniProt Q99685, L169S/L176S); assay: MGL ThermoFluor Assay - Mutant; type: binding; settings: 0.07 mg/ml mutant MGL, 100 μM ANS, pH 7.0
T2 construct: purified mutant MGL (mut-MGLL 11-313 L179S L186S)
T2 sequence (Q99685 1-303 L169S/L176S): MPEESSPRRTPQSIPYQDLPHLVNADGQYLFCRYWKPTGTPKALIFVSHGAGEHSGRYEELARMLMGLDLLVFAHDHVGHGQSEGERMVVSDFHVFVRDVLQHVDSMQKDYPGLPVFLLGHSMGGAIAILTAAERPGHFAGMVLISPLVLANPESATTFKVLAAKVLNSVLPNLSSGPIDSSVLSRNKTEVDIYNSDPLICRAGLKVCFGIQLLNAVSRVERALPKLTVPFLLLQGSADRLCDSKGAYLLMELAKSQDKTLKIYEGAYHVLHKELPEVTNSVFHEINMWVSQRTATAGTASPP
Experimental: The ThermoFluor (TF) assay is a 384-well plate-based binding assay that measures thermal stability of proteins^1,2. The experiments were carried out using instruments available from Johnson & Johnson Pharmaceutical Research & Development, LLC. TF dye used in all experiments was 1,8-ANS (Invitrogen: A-47). Final TF assay conditions used for MGL studies were 0.07 mg/ml of mutant MGL, 100 μM ANS, 200 mM NaCl, 0.001% Tween-20 in 50 mM PIPES (pH=7.0).
Screening compound plates contained 100% DMSO compound solutions at a single concentration. […] Columns 12 and 24 were used as DMSO reference and contained no compound. […] Following compound dispension, protein and dye solutions were added to achieve the final assay volume of 3 μL.
Bar-coded assay plates were robotically loaded onto a thermostatically controlled PCR-type thermal block and then heated from 40 to 90° C. degrees at a ramp-rate of 1° C./min for all experiments. Fluorescence was measured by continuous illumination with UV light (Hamamatsu LC6), supplied via fiber optics and filtered through a band-pass filter (380-400 nm; >60D cutoff). Fluorescence emission of the entire 384-well plate was detected by measuring light intensity using a CCD camera (Sensys, Roper Scientific) filtered to detect 500±25 nm, resulting in simultaneous and independent readings of all 384 wells. A single image with 20-sec exposure time was collected at each temperature, and the sum of the pixel intensity in a given area of the assay plate was recorded vs temperature and fit to standard equations to yield the Tm^1. • 1.
The Kd values for certain compounds of Formula (I) were determined from a fit of the equation to the concentration-response plot of the fractional activity as a function of […]. For some experiments, quantitative NMR spectroscopy (qNMR) was used to measure concentration of the initial 100% DMSO compound solutions and, using the same fitting method, qKd values were determined.

[1] = molecular target: T3, mutant MGL (mut-MGLL 11-313 L179S L186S) (Homo sapiens, UniProt Q99685, L169S/L176S); assay: MGL Enzyme Activity Assay, purified mutant MGL, 4MU-B substrate; type: biochemical; settings: mutant MGL 5 nM, 4MU-B 10 μM, 37° C.; read-out: MGL mutant inh IC50
T3 construct: purified mutant MGL (mut-MGLL 11-313 L179S L186S)
T3 sequence (Q99685 1-303 L169S/L176S): T2 sequence (Q99685 1-303 L169S/L176S)
Experimental: All rate-based assays were performed in black 384-well polypropylene PCR microplates (Abgene) in a total volume of 30 μL. Substrate 4-methylumbelliferyl butyrate (4MU-B; Sigma) and either purified mutant MGL (mut-MGLL 11-313 L179S L186S) or purified wild type MGL (wt-MGLL 6H-11-313) were diluted separately into 20 mM PIPES buffer (pH=7.0), containing 150 mM NaCl and 0.001% Tween 20. Compounds of Formula (I), including Formulas I(a), I(b), and I(c), were pre-dispensed (50 nL) into the assay plate using a Cartesian Hummingbird prior to adding 4MU-B (25 μL of 1.2× solution to a final concentration of 10 μM) followed by enzyme (5 μL of a 6× solution to a final concentration of 5 nM) to initiate the reaction. Final compound concentrations ranged from 17 to 0.0003 μM. The fluorescence change due to 4MU-B cleavage was monitored with excitation and emission wavelengths of 335 and 440 nm, respectively, and a bandwidth of 10 nm (Safire^2, Tecan) at 37° C. for 5 min.
The IC50 values for the following compounds were determined using Microsoft Office Excel from a fit of the equation to the concentration-response plot of the fractional activity as a function of inhibitor concentration.

activity at 1 µM (MGL) [%]	pKd (mutant MGL)	pIC50 [1]	activity at 10 µM (MGL) [%]	SMILES
271	7.48	8.22		O=C(NC1CN(C2CN(C(=O)c3ccc4c(ccn4S(=O)(=O)c4ccccc4)c3)C2)C1)c1nccs1 [Cpd 3, N-(1′-{[1-(Phenylsulfonyl)-1H-indol-5-yl]carbonyl}-1,3′-biazetidin-3-yl)-1,3-thiazole-2-carboxamide]
127	6.89	7.92		O=C(NC1CN(C2CN(C(=O)c3cc4c(C(F)(F)F)cccc4s3)C2)C1)c1nccs1 [Cpd 8, N-(1′-{[4-(Trifluoromethyl)-1-benzothiophen-2-yl]carbonyl}-1,3′-biazetidin-3-yl)-1,3-thiazole-2-carboxamide]
	7.36	7.82	220	O=C(NC1CN(C2CN(C(=O)c3ccc4c(ccn4-c4ccc(F)cc4)c3)C2)C1)c1cscn1 [Cpd 11, N-(1′-{[1-(4-Fluorophenyl)-1H-indol-5-yl]carbonyl}-1,3′-biazetidin-3-yl)-1,3-thiazole-4-carboxamide]
218	6.67	7.23		CS(=O)(=O)c1cccc(-c2ccc(C(=O)N3CC(N4CC(NC(=O)c5nccs5)C4)C3)cc2)c1 [Cpd 18, N-(1′-{[3′-(Methylsulfonyl)biphenyl-4-yl]carbonyl}-1,3′-biazetidin-3-yl)-1,3-thiazole-2-carboxamide]
	6.35	6.78		O=C(NC1CN(C2CN(C(=O)c3ccc4ccn(-c5ccccc5)c4c3)C2)C1)c1nccs1 [Cpd 27, N-{1′-[(1-Phenyl-1H-indol-6-yl)carbonyl]-1,3′-biazetidin-3-yl}-1,3-thiazole-2-carboxamide]
	6.81	6.57		O=C(NC1CN(C2CN(C(=O)c3ccc(Cc4ccccc4)cc3)C2)C1)c1ccccc1 [Cpd 31, N-{1′-[(4-Benzylphenyl)carbonyl]-1,3′-biazetidin-3-yl}benzamide]
	6.65	6.22		O=C(NC1CN(C2CN(C(=O)c3ccc(-c4ccccc4)cc3)C2)C1)c1ccccc1 [Cpd 39, N-[1′-(Biphenyl-4-ylcarbonyl)-1,3′-biazetidin-3-yl]benzamide]
	5.48	5.77		O=C(NC1CN(C2CN(C(=O)c3ccc(Br)cc3)C2)C1)c1nccs1 [Cpd 43, N-{1′-[(4-Bromophenyl)carbonyl]-1,3′-biazetidin-3-yl}-1,3-thiazole-2-carboxamide]
	6.08	5.56		O=C(NC1CN(C2CN(C(=O)c3ccc(Oc4ccccc4)cc3)C2)C1)c1ccccc1 [Cpd 45, N-{1′-[(4-Phenoxyphenyl)carbonyl]-1,3′-biazetidin-3-yl}benzamide]
	5.47	5.43		O=C(NC1CN(C2CN(C(=O)c3ccc4nc(Br)sc4c3)C2)C1)c1cscn1 [Cpd 46, N-{1′-[(2-Bromo-1,3-benzothiazol-6-yl)carbonyl]-1,3′-biazetidin-3-yl}-1,3-thiazole-4-carboxamide]
	5.60	5.32		O=C(NC1CN(C2CN(C(=O)c3nc4cc(C(F)(F)F)ccc4s3)C2)C1)c1nccs1 [Cpd 47, N-(1′-{[5-(Trifluoromethyl)-1,3-benzothiazol-2-yl]carbonyl}-1,3′-biazetidin-3-yl)-1,3-thiazole-2-carboxamide]
	7.30	8.10	400	O=C(c1ccc2c(ccn2S(=O)(=O)c2ccccc2)c1)N1CC(N2CC(N3Cc4ccccc4C3=O)C2)C1 [Cpd 71, 2-(1′-{[1-(Phenylsulfonyl)-1H-indol-5-yl]carbonyl}-1,3′-biazetidin-3-yl)-2,3-dihydro-1H-isoindol-1-one]
	8.15	7.82		O=C(c1sc2cc(Br)ccc2c1Cl)N1CC(N2CC(N3Cc4ccccc4C3=O)C2)C1 [Cpd 75, 2-{1′-[(6-Bromo-3-chloro-1-benzothiophen-2-yl)carbonyl]-1,3′-biazetidin-3-yl}-2,3-dihydro-1H-isoindol-1-one]
	7.40	7.77		O=C(c1ccc2nc(-c3cccc(C(F)(F)F)c3)oc2c1)N1CC(N2CC(N3Cc4ccccc4C3=O)C2)C1 [Cpd 78, 2-[1′-({2-[3-(Trifluoromethyl)phenyl]-1,3-benzoxazol-6-yl}carbonyl)-1,3′-biazetidin-3-yl]-2,3-dihydro-1H-isoindol-1-one]
		7.64	416	O=C(c1ccc2c(Br)cccc2c1)N1CC(N2CC(N3Cc4ccccc4C3=O)C2)C1 [Cpd 83, 2-{1′-[(5-Bromonaphthalen-2-yl)carbonyl]-1,3′-biazetidin-3-yl}-2,3-dihydro-1H-isoindol-1-one]
		7.30	447	O=C(c1ccc(Cc2cccc(C(F)(F)F)c2)cc1)N1CC(N2CC(N3Cc4ccccc4C3=O)C2)C1 [Cpd 86, 2-[1′-({4-[3-(Trifluoromethyl)benzyl]phenyl}carbonyl)-1,3′-biazetidin-3-yl]-2,3-dihydro-1H-isoindol-1-one]
		7.02	294	O=C(c1ccc2nc(-c3ccc(Cl)cc3)oc2c1)N1CC(N2CC(N3Cc4ccccc4C3=O)C2)C1 [Cpd 88, 2-(1′-{[2-(4-Chlorophenyl)-1,3-benzoxazol-6-yl]carbonyl}-1,3′-biazetidin-3-yl)-2,3-dihydro-1H-isoindol-1-one]
		7.01	663	O=C(c1ccc2c(ccn2-c2ccccc2C(F)(F)F)c1)N1CC(N2CC(N3Cc4ccccc4C3=O)C2)C1 [Cpd 89, 2-[1′-({1-[2-(Trifluoromethyl)phenyl]-1H-indol-5-yl}carbonyl)-1,3′-biazetidin-3-yl]-2,3-dihydro-1H-isoindol-1-one]
	7.00	6.62		O=C(c1ccc(-c2ccccc2)cc1)N1CC(N2CC(N3Cc4ccccc4C3=O)C2)C1 [Cpd 92, 2-[1′-(Biphenyl-4-ylcarbonyl)-1,3′-biazetidin-3-yl]-2,3-dihydro-1H-isoindol-1-one]
	7.11	6.44		O=C(c1cc2cc(Br)ccc2s1)N1CC(N2CC(N3Cc4ccccc4C3=O)C2)C1 [Cpd 93, 2-{1′-[(5-Bromo-1-benzothiophen-2-yl)carbonyl]-1,3′-biazetidin-3-yl}-2,3-dihydro-1H-isoindol-1-one]
	7.04	6.39		O=C(c1ccc(Cc2ccccc2)cc1)N1CC(N2CC(N3Cc4ccccc4C3=O)C2)C1 [Cpd 94, 2-{1′-[(4-Benzylphenyl)carbonyl]-1,3′-biazetidin-3-yl}-2,3-dihydro-1H-isoindol-1-one]
